Reference: patent US8039420B2, “Fungicidal composition containing acid amide derivative” (Ishihara Sangyo Kaisha, Ltd., priority 2004, dated 2011)

Tested on: Sphaerotheca fuliginea
Assay: Test on Preventive Effect Against Cucumber Powdery Mildew
Settings: 200 ppm, spray on cucumber (Sagamihanpaku) 1.5-leaf stage; area of sporulation 6 to 7 days after inoculation
Experimental: In each test, the controlling index was determined on the basis of the following standards:
Cucumber (cultivar: Sagamihanpaku) was cultivated in a plastic pot having a diameter of 7.5 cm, and when it reached 1.5-leaf stage, 10 ml of a chemical solution having the acid amide derivative of the formula (I) or a salt thereof adjusted to a prescribed concentration, was applied by a spray gun. After the chemical solution dried (the same day as the application or the next day), a suspension of conidia of Sphaerotheca fuliginea was sprayed and inoculated and maintained in a constant temperature chamber at 20° C. From 6 to 7 days after the inoculation, the area of sporulation was investigated, and the controlling index was determined in accordance with the above evaluation standards.

For `Cc1nn(C)c(Cl)c1C(=O)NC(C)(C)C(=O)c1ccccc1` [1-34], the controlling index was 4 (Area of lesions, length of lesions, number of lesions or area of sporulation is less than 10% of non-treated plot).
